The nature of data set [1]: Membrane permeability at 10 uM at pH 4 by PAMPA method. The class given is ADME. The settings on record: read-out: permeability. A general note: In PAMPA a lipid-coated filter parts donor from acceptor wells.
The next data set can be described thus: in vitro. The settings on record: PAMPA, pH 7.4.
For data set [2] the following is noted: pampa, pH 7.4, 10 µM.

For the molecule `CCOC(=O)c1cc2c(OC)cccc2nc1-c1ccc2c(c1)OCO2`, the Papp at 10 µM in data set [1] came to 500 ×10⁻⁶ cm/s. In the data set “in vitro”, `CCOC(=O)c1c(-c2cccc([N+](=O)[O-])c2)[nH]c2cccc(OC)c2c1=O` showed a permeability at 10 µM of 110 ×10⁻⁶ cm/s. Consider `CCOC(=O)c1c(-c2ccc3c(c2)OCO3)nc2cc(OC)ccc2c1Cl`, for which, in data set [1], the Papp at 10 µM came out at 500 ×10⁻⁶ cm/s. With `NC(=O)N1c2ccccc2C=Cc2ccccc21` [CARBAMAZEPINE], in data set [2], the permeability is on record as 145 10^-6 cm/s. In the case of `CNC(=C[N+](=O)[O-])NCCSCc1ccc(CN(C)C)o1.Cl` [RANITIDINE HYDROCHLORIDE], in data set [2], the permeability was 1.2 10^-6 cm/s.

The values above are taken from ChEMBL document CHEMBL1156314, “Synthesis and structure-activity relationships of antimalarial 4-oxo-3-carboxyl quinolones” (Bioorg Med Chem, 2010).
